Test results: US9090632B2, “Bicyclic oxazole and thiazole compounds and their use as allosteric modulators of mGluR5 receptors” (Vanderbilt University, priority 2010, dated 2015)

Target: human mGluR5 (Homo sapiens, UniProt P41594)
Assay: Cell-based functional Ca2+ mobilization assay, potentiation of glutamate EC20 response (H10H cell-line)
Conditions: H10H cell-line expressing recombinant human mGluR5; for Emax / Emax (%): in presence of glutamate EC20, normalized to maximal glutamate response; for EC50 / pEC50: potentiation in presence of glutamate EC20
Description: Human embryonic kidney (HEK) cells transfected with rat mGluR5 were plated in clear bottom assay plates for assay in a Functional Drug Screening System (FDSS). In the alternative assay, HEK cells transfected with human mGluR5 were plated for assay in the FDSS. In some cases the HEK cells transfected with human mGluR5 are the H10H cell line. Alternatively, the HEK cells transfected with human mGluR5 are the H12H cell line. […] The cells were loaded with a Ca^2+-sensitive fluorescent dye (e.g., Fluo-4), and the plates were washed and placed in the FDSS instrument. After establishment of a fluorescence baseline for about three seconds, the compounds of the present invention were added to the cells, and the response in cells was measured. Five minutes later, an mGluR5 agonist (e.g., glutamate, 3,5-dihydroxyphenylglycine, or quisqualate) was added to the cells, and the response of the cells was measured. Potentiation of the agonist response of mGluR5 by the compounds in the present invention was observed as an increase in response to non-maximal concentrations of agonist (here, glutamate) in the presence of compound compared to the response to agonist in the absence of compound.
The above described assay can be operated in two modes. In the first mode, a range of concentrations of the present compounds were added to cells, followed by a single fixed concentration of agonist. If a compound acted as a potentiator, an EC50 value for potentiation and a maximum extent of potentiation by the compound at this concentration of agonist was determined by non-linear curve fitting. In the second mode, several fixed concentrations of the present compounds were added to various wells on a plate, followed by a range of concentrations of agonist for each concentration of present compound; the EC50 values for the agonist at each concentration of compound were determined by non-linear curve fitting. A decrease in the EC50 value of the agonist with increasing concentrations of the present compounds (a leftward shift of the agonist concentration-response curve) is an indication of the degree of mGluR5 potentiation at a given concentration of the present compound. An increase in the EC50 value of the agonist with increasing concentrations of the present compounds (a rightward shift of the agonist concentration-response curve) is an indication of the degree of mGluR5 antagonism at a given concentration of the present compound. The second mode also indicates whether the present compounds also affect the maximum response to mGluR5 to agonists.
Human mGluR5a cDNA in pCMV6-XL6 mammalian expression plasmid was purchased from OriGene Technologies, Inc. (catalogue number SC326357) and subcloned into pcDNA3.1(−). Human embryonic kidney (HEK) 293A cells were then transfected with human mGluR5a pcDNA3.1(−) using LipofectAmine 2000 (Invitrogen) and monoclones were selected and tested for functional response using a Ca^2+ mobilization assay. Monoclones were named for the species (“H” for human) plus the location on the plate (e.g. “10H”).
HEK cells transfected with the human mGluR5a receptor were plated at 15,000 cells/well in clear-bottomed poly-D-lysine-coated assay plates (BD Falcon) in glutamate-glutamine-free growth medium and incubated overnight at 37° C. and 5% CO2. The cell-line used to obtain the data reported herein was the H10H cell-line expressing the human mGluR5 receptor. Although the H10H cell-line was used to obtain the data shown herein, the H12H cell-line expressing the human mGluR5 receptor can also be used in these assays. The following day, the growth medium was removed and the cells were washed with assay buffer containing 1× Hank's balanced salt solution (Invitrogen, Carlsbad, Calif.), 20 mM HEPES, 2.5 mM probenecid, pH 7.4 and left with 20 μL of this reagent. Following this step, the cells were loaded with calcium indicator dye, fluo-4 AM, to a final concentration of 2 μM and incubated for 40-45 min at 37° C. […]

Chain of human mGluR5 (P41594 21-1180 isoform P41594-2 limits assumed): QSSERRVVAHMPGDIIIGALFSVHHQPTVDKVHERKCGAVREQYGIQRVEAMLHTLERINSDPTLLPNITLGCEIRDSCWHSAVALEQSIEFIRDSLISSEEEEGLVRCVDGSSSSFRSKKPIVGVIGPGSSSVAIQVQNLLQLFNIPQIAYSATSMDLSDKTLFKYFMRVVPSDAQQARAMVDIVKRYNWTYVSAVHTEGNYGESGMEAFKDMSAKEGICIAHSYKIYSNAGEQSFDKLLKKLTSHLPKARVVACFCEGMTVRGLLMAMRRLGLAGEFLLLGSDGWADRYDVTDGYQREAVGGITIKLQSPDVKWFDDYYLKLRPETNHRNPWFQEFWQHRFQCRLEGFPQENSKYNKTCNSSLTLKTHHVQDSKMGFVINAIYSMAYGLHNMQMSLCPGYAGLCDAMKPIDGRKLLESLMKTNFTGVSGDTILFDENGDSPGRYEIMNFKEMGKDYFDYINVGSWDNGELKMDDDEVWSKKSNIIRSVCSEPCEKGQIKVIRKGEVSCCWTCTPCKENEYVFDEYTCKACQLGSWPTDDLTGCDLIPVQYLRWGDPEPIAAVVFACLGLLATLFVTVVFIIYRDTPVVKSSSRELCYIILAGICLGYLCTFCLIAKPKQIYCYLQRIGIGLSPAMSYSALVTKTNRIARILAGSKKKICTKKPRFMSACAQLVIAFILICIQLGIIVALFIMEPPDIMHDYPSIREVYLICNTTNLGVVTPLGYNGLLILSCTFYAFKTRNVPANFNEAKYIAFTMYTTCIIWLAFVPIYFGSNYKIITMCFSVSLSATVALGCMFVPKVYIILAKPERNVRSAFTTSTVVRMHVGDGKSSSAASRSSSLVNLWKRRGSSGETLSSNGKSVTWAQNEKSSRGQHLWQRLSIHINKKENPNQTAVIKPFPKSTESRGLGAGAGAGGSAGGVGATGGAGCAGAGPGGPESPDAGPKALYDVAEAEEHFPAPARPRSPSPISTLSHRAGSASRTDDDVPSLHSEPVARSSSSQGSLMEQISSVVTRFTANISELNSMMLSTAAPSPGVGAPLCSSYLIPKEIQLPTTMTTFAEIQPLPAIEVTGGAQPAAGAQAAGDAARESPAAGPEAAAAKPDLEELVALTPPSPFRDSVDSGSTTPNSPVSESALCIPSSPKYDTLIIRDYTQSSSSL

Emax	EC50	Emax (%)	pEC50	SMILES
72%	389 nM			O=C(c1n[nH]c2ccccc12)N1CCc2nc(COc3ccccc3)oc2C1 [Example B126]
		72%	5.89	N#Cc1cc(C(=O)N2CCc3nc(COc4ccccc4)oc3C2)ccn1 [Example B87]
		61%	5.92	O=C(Cc1ccc(F)cc1)N1CCc2nc(COc3ccccc3)oc2C1 [Example B51]
		54%	<5	O=C(c1ccccn1)N1CCc2nc(COc3ccccc3)oc2C1 [Example B23]
32%	> 30200 nM			O=C(c1ncc[nH]1)N1CCc2nc(COc3ccccc3)oc2C1 [Example B153]
61%	407 nM			O=C(c1coc2ccccc12)N1CCc2nc(COc3ccccc3)oc2C1 [Example B146]
		37%	<5	O=C(c1cnc(C(F)(F)F)nc1)N1CCc2nc(COc3ccccc3)oc2C1 [Example B118]
68%	490 nM			O=C(c1ccccc1F)N1CCc2nc(COc3ccccc3)oc2C1 [Example B9]
		78%	6.44	Cc1ccc(C(=O)N2CCc3nc(COc4ccccc4)oc3C2)n1C [Example B103]
		45%	<5	Cc1cc(C(=O)N2CCc3nc(COc4ccccc4)oc3C2)no1 [Example B157]
73.5%	66.1 nM			O=C(c1ccc(Cl)s1)N1CCc2nc(COc3ccccc3)oc2C1 [Example B109]
		69%	5.33	O=C(c1cccnc1)N1CCc2nc(COc3ccccc3)oc2C1 [Example B18]
26%	> 30200 nM			O=C(c1c[nH]cn1)N1CCc2nc(COc3ccccc3)oc2C1 [Example B154]
		57%	6.70	Cc1ccc(C(=O)N2CCc3nc(COc4ccccc4)oc3C2)s1 [Example B110]
39%			>5	O=C(c1n[nH]c2cccnc12)N1CCc2nc(COc3ccccc3)oc2C1 [Example B144]
22%	> 10000 nM			Cc1noc(C(=O)N2CCc3nc(COc4ccccc4)oc3C2)n1 [Example B119]
		58%	<5	Cc1cccnc1C(=O)N1CCc2nc(COc3ccccc3)oc2C1 [Example B42]
		74%	6.43	O=C(c1cccc(F)c1F)N1CCc2nc(COc3ccccc3)oc2C1 [Example B15]
56%	501 nM			Cn1c(C(=O)N2CCc3nc(COc4ccccc4)oc3C2)cc2ccccc21 [Example B36, 5-[(1-methyl-1H-indol-2-yl)carbonyl]-2-(phenoxymethyl)-4,5,6,7-tetrahydro[1,3]oxazolo[5,4-c]pyridine]
27%	> 30200 nM			Cn1cncc1C(=O)N1CCc2nc(COc3ccccc3)oc2C1 [Example B158]
		58%	5.66	N#Cc1ccc(C(=O)N2CCc3nc(COc4ccccc4)oc3C2)cc1F [Example B90]
		46%	<5	O=C(c1cc[nH]n1)N1CCc2nc(COc3ccccc3)oc2C1 [Example B115]
		57%	7.14	O=C(c1ccc(Cl)o1)N1CCc2nc(COc3ccccc3)oc2C1 [Example B57]
		59%	5.63	O=C(c1ccc2nccnc2c1)N1CCc2nc(COc3ccccc3)oc2C1 [Example B91]
		57%	6.43	N#Cc1cc(F)cc(C(=O)N2CCc3nc(COc4ccccc4)oc3C2)c1 [Example B50]
		43%	<5	O=C(c1cnccn1)N1CCc2nc(COc3ccccc3)oc2C1 [Example B148]

Further lines, the compound ahead of its results:

SMILES	Emax	EC50	Emax (%)	pEC50
O=C(c1ccc(F)cc1)N1CCCc2nc(COc3ccccc3)sc2C1 [Example B25]			83%	6.35
O=C(CC(F)(F)F)N1CCc2nc(COc3ccccc3)oc2C1 [Example B116]	33%	> 10000 nM		
O=C(c1ccc(F)cc1)N1CCc2oc(COc3ccccc3)nc2C1 [Example B22]	65%	1620 nM		
O=C(c1ccc(F)cc1)N1CCc2nc(COc3ccc(F)cc3)oc2C1 [Example B10]	75%			6.18
Cc1ccccc1OCc1nc2c(o1)CN(C(=O)c1ccc(F)cc1)CC2 [Example B37]	57%	2400 nM		
O=C(c1ccc(F)cc1)N1CCc2nc(COc3ccncc3)oc2C1 [Example B73]			73%	5.78
O=C(c1cccc(F)c1F)N1CCc2nc(COc3cccc(F)c3)oc2C1 [Example B28]			72%	6.24
O=C(c1ccc(F)cc1)N1CCc2nc(COc3cncc(F)c3)oc2C1 [Example B48]			62%	5.49
N#Cc1cc(F)cc(C(=O)N2CCc3nc(COc4cccc(F)c4)oc3C2)c1 [Example B92]			52%	6.73
O=C(c1ccc(F)cc1)N1CCc2nc(COc3cccc(Cl)c3)oc2C1 [Example B69]			72%	5.85
N#Cc1cc(Br)cc(OCc2nc3c(o2)CN(C(=O)c2ccc(F)cc2)CC3)c1 [Example B137]			24%	<4.52
O=C(c1ccc(F)cc1)N1CCc2nc(COc3ccc(F)c(F)c3)oc2C1 [Example B11]	60%			6.19
O=C(c1ccc(S(F)(F)(F)(F)F)cc1)N1CCc2nc(COc3ccccc3)oc2C1 [Example B52]			51%	5.24
O=C(OCc1ccccc1)N1CCc2nc(COc3ccccc3)oc2C1 [Example B20]			72%	5.82
O=C(c1ccc(F)cc1)N1CCc2nc(COc3ccccc3C(F)(F)F)oc2C1 [Example B130]	22%	> 30200 nM		
O=C(Cc1c[nH]cn1)N1CCc2nc(COc3ccccc3)oc2C1.O=C(O)C(F)(F)F [Example B155]			30%	<4.52
Cc1cccc(OCc2nc3c(o2)CN(C(=O)c2ccc(F)cc2)CC3)n1 [Example B133]	32%	> 10000 nM		
O=C(c1ccc(F)cc1)N1CCc2nc(/C=C/c3ccccc3)oc2CC1 [Example B31, 6-(4-fluorobenzoyl)-5,6,7,8-tetrahydro-2-[(E)-2-phenylethenyl]-4H-oxazolo[4,5-d]azepine]	47%	1820 nM		
CC(C)(C)OCC(=O)N1CCc2nc(COc3ccccc3)oc2C1 [Example B55]	14%			
O=C(c1ccc(F)cc1)N1CCc2nc(CCc3ccccc3)oc2C1 [Example B131, 5-[(4-fluorophenyl)carbonyl]-2-(2-phenylethyl)-4,5,6,7-tetrahydro[1,3]oxazolo[5,4-c]pyridine]	24%	> 30200 nM		
Cc1cccc(OCc2nc3c(o2)CN(C(=O)c2ccc(F)cc2)CC3)c1 [Example B66]	63%	1200 nM		
O=C(c1ccc(F)cc1F)N1CCc2nc(COc3ccccc3)sc2C1 [Example B12]			69%	6.06
O=C(c1ccc(F)cc1)N1Cc2nc(COc3ccccc3)oc2C1 [Example B21]			81%	6.05
O=C(CCc1ccccc1)N1CCc2nc(COc3ccccc3)oc2C1 [Example B64]	59%	813 nM		
O=C(c1ccc(F)cc1)N1CCc2nc(COc3cccc(F)c3)oc2C1 [Example B8, 5-(4-fluorobenzoyl)-2-[(3-fluorophenoxy)methyl]-4,5,6,7-tetrahydro-oxazolo[5,4-c]pyridine]	74%	219 nM		
